Values joined by “and” are separate entries in the source; they are usually repeats but may differ in a detail not shown here. Equal entries are not always repeated.
Settings: Liquid

CCOC(C)(C)CC [1,1-dimethylpropyl ethyl ether]
Settings	vapor or sublimation pressure [kPa]
274.2 K	1.413
276.2 K	1.614
278.2 K	1.821
280.2 K	2.055
282.2 K	2.341
284.2 K	2.67
287.2 K	3.214
290.2 K	3.744
293.2 K	4.439
296.2 K	5.272
299.2 K	6.128
302.2 K	7.186

CCCCOC(C)(C)CC [butyl 1,1-dimethylpropyl ether]
Settings	vapor or sublimation pressure
274.2 K	0.1111 kPa
276.2 K	0.1278 kPa
278.2 K	0.1602 kPa and 0.1508 kPa
281.3 K	0.1842 kPa
283.2 K	0.2344 kPa and 0.2179 kPa
285.2 K	0.2509 kPa
286.2 K	0.2632 kPa
288.2 K	0.3232 kPa
290.2 K	0.3551 kPa
293.2 K	0.4784 kPa and 0.4372 kPa
296.2 K	0.5522 kPa
298.2 K	0.6658 kPa and 0.6132 kPa
301.2 K	0.7443 kPa
303.2 K	0.901 kPa
304.2 K	0.9012 kPa
308.2 K	1.199 kPa

CCC(C)(C)OC [2-methoxy-2-methylbutane]
Settings	vapor or sublimation pressure [kPa]
274.2 K	2.693
276.2 K	2.998
278.2 K	3.315
280.2 K	3.8
282.8 K	4.422
283.8 K	4.678
287.8 K	5.69
292.9 K	7.603
297.8 K	9.142
302.8 K	12.31
307.8 K	14.55

CCCCCOC(C)(C)CC(C)(C)C [pentane, 2-pentoxy-2,4,4-trimethyl-]
Settings	vapor or sublimation pressure [kPa]
277.5 K	0.0037
279.5 K	0.0044
281.5 K	0.0052
283.5 K	0.0062
285.6 K	0.0073
288.6 K	0.0095
291.6 K	0.0124
294.7 K	0.0155
297.7 K	0.0194
300.7 K	0.0247
303.2 K	0.03

CCCOC(C)(C)CC [1,1-dimethylpropyl propyl ether]
Settings	vapor or sublimation pressure [kPa]
274.2 K	0.4002
276.2 K	0.4448
278.1 K	0.5329
280.2 K	0.6121
282.2 K	0.7161
284.2 K	0.7938
285.1 K	0.8034
287.3 K	0.9974
290.3 K	1.199
293.3 K	1.434
296.2 K	1.799
299.2 K	2.072
302.2 K	2.332

CCOC(C)(C)CC(C)(C)C [ethyl 1,1,3,3-tetramethylbutyl ether]
Settings	vapor or sublimation pressure [kPa]
274.3 K	0.0913
277.2 K	0.1201
280.1 K	0.1414
283.2 K	0.1829
286.1 K	0.2218
289.2 K	0.2772
292.2 K	0.339
295.2 K	0.4146
298.2 K	0.5117
301.2 K	0.6018

CCCCCCOC(C)(C)CC(C)(C)C [pentane, 2-hexoxy-2,4,4-trimethyl-]
Settings	vapor or sublimation pressure [kPa]
295.8 K	0.0053
298.8 K	0.0069
301.9 K	0.0086
304.9 K	0.0111
308 K	0.0141
311 K	0.0162
314.1 K	0.0215
317.1 K	0.0255
320.1 K	0.0321
323.1 K	0.0406
326.2 K	0.0502

CCCOC(C)(C)CC(C)(C)C [pentane, 2-propoxy-2,4,4-trimethyl-]
Settings	vapor or sublimation pressure [kPa]
274.3 K	0.0336
277.3 K	0.0443
278.2 K	0.0491
280.2 K	0.058
283.4 K	0.07
286.2 K	0.0913
289.3 K	0.1179
292.3 K	0.1404
294.4 K	0.1616
296.3 K	0.1858
297.4 K	0.2008
297.8 K	0.2103
298.3 K	0.2196
299.3 K	0.2293
300.3 K	0.2411
301.2 K	0.2557
302.2 K	0.2825
303.2 K	0.2956
304.3 K	0.3231
305.2 K	0.3294
306.2 K	0.3595
307.2 K	0.382
308.2 K	0.3898

COC(C)(C)CC(C)(C)C [methyl 1,1,3,3-tetramethylbutyl ether]
Settings	vapor or sublimation pressure [kPa]
276.2 K	0.1656
277.3 K	0.1859
278.3 K	0.1958
280.3 K	0.2383
283.2 K	0.2818
283.3 K	0.2759
286.3 K	0.356
288.1 K	0.3919
289.3 K	0.4126
292.3 K	0.5102
293.3 K	0.5636
295.2 K	0.6069
298 K	0.7478
298.2 K	0.7352
301.2 K	0.8887
303.2 K	1.022
304.2 K	1.07
308 K	1.339

CCCCOC(C)(C)CC(C)(C)C [butyl 1,1,3,3-tetramethylbutyl ether]
Settings	vapor or sublimation pressure [kPa]
278.3 K	0.0128
281.3 K	0.0165
284.3 K	0.0206
287.3 K	0.0269
290.3 K	0.0324
293.3 K	0.0413
296.3 K	0.053
299.2 K	0.0654
302.2 K	0.0797
305.2 K	0.1003
308.2 K	0.1155
311.2 K	0.1474
314.2 K	0.1741

CC(C)COC(C)(C)C [isobutyl tert-butyl ether]
Settings	vapor or sublimation pressure [kPa]
273.3 K	0.6788
275.4 K	0.7463
276.4 K	0.7981
278.5 K	0.9
278.6 K	0.938
280.4 K	0.9803
282.5 K	1.207
283.5 K	1.362
284.6 K	1.398
287.6 K	1.664
288.4 K	1.769
290.6 K	1.996
293.4 K	2.354
293.6 K	2.439
295.6 K	2.686
298.4 K	3.187
298.7 K	3.146
301.8 K	3.723
303.4 K	4.026
304.8 K	4.451
308.4 K	5.224

Source: the NIST ThermoML archive (doi:10.1021/je0255980)
